Results: PubChem BioAssay (NCI)
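Assay format: 96-well plates, 48-hour exposure. GI50 is the concentration that inhibits growth by half. TGI: total growth inhibition.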

Experiments:
Assay in all cases: growth of human tumour cells (NCI), 48 h
[1] = system: 786-0 renal
[2] = system: A498 renal
[3] = system: A549 NSCLC
[4] = system: ACHN renal
[5] = system: BT-549 breast
[6] = system: CAKI-1 renal
[7] = system: CCRF-CEM leukemia
[8] = system: COLO 205 colon
[9] = system: DU-145 prostate
[10] = system: EKVX NSCLC
[11] = system: HCC-2998 colon
[12] = system: HCT-116 colon
[13] = system: HCT-15 colon
[14] = system: HL-60(TB) leukemia
[15] = system: HOP-62 NSCLC
[16] = system: HOP-92 NSCLC
[17] = system: HS 578T breast
[18] = system: HT29 colon
[19] = system: IGROV1 ovarian
[20] = system: K-562 leukemia
[21] = system: KM12 colon
[22] = system: LOX IMVI melanoma
[23] = system: M14 melanoma
[24] = system: MALME-3M melanoma
[25] = system: MCF7 breast
[26] = system: MDA-MB-231 breast
[27] = system: MDA-MB-435
[28] = system: MDA-MB-468 breast
[29] = system: MOLT-4 leukemia
[30] = system: NCI-H226 lung
[31] = system: NCI-H23 lung
[32] = system: NCI-H460 lung
[33] = system: NCI-H522 lung
[34] = system: OVCAR-3 ovarian
[35] = system: OVCAR-4 ovarian
[36] = system: OVCAR-5 ovarian
[37] = system: OVCAR-8 ovarian
[38] = system: PC-3 prostate
[39] = system: RPMI-8226 leukemia
[40] = system: RXF 393 renal
[41] = system: SF-268 CNS
[42] = system: SF-295 CNS
[43] = system: SF-539 CNS
[44] = system: SK-MEL-2 melanoma
[45] = system: SK-MEL-28 melanoma
[46] = system: SK-MEL-5 melanoma
[47] = system: SK-OV-3 ovarian
[48] = system: SN12C renal
[49] = system: SNB-19 CNS
[50] = system: SNB-75 CNS
[51] = system: SR leukemia
[52] = system: SW-620 colon
[53] = system: T-47D breast
[54] = system: TK-10 renal
[55] = system: U251 CNS
[56] = system: UACC-257 melanoma
[57] = system: UACC-62 melanoma
[58] = system: UO-31 renal

O=C1Nc2ccc(Cl)cc2/C1=C/c1cccc(OCc2ccccc2)c1
GI50 [1]: 14.1 µM | TGI [1]: 32.6 µM | GI50 [2]: 38 µM | TGI [2]: > 100 µM | GI50 [3]: 18.3 µM | TGI [3]: > 100 µM | GI50 [4]: 15 µM | TGI [4]: 37.3 µM | GI50 [5]: 14.3 µM | TGI [5]: 66.1 µM | GI50 [6]: 10.8 µM | TGI [6]: 32 µM | GI50 [7]: 11.2 µM | TGI [7]: 32.1 µM | GI50 [8]: 37.4 µM | TGI [8]: > 100 µM | GI50 [9]: 17 µM | TGI [9]: 45.3 µM | GI50 [10]: 20.5 µM | TGI [10]: > 100 µM | GI50 [11]: 41.2 µM | TGI [11]: > 100 µM | GI50 [12]: 10.7 µM | TGI [12]: > 100 µM | GI50 [13]: 9.4 µM | TGI [13]: 94.6 µM | GI50 [14]: 13.3 µM | TGI [14]: 57.8 µM | GI50 [15]: 25.6 µM | TGI [15]: 79.8 µM | GI50 [16]: 2160 nM | TGI [16]: 13.4 µM | GI50 [17]: 16 µM | TGI [17]: 72.9 µM | GI50 [18]: 37.8 µM | TGI [18]: > 100 µM | GI50 [19]: 12.3 µM | TGI [19]: 61.2 µM | GI50 [20]: 11 µM | TGI [20]: 37.8 µM | GI50 [21]: 20.1 µM | TGI [21]: > 100 µM | GI50 [22]: 10.2 µM | TGI [22]: 40.4 µM | GI50 [23]: 19.5 µM | TGI [23]: > 100 µM | GI50 [24]: 21.1 µM | TGI [24]: 64.7 µM | GI50 [25]: 3.9 µM | TGI [25]: 75.1 µM | GI50 [26]: 15.3 µM | TGI [26]: 37.9 µM | GI50 [27]: 24 µM | TGI [27]: 98.8 µM | GI50 [28]: 6.52 µM | TGI [28]: 67.5 µM | GI50 [29]: 4.96 µM | TGI [29]: 23.6 µM | GI50 [30]: 14.1 µM | TGI [30]: 84.6 µM | GI50 [31]: 22 µM | TGI [31]: > 100 µM | GI50 [32]: 14 µM | TGI [32]: 37.9 µM | GI50 [33]: 24 µM | TGI [33]: > 100 µM | GI50 [34]: 12.4 µM | TGI [34]: 31.7 µM | GI50 [35]: 11.8 µM | TGI [35]: 63.2 µM | GI50 [36]: 27.5 µM | TGI [36]: > 100 µM | GI50 [37]: 20.2 µM | TGI [37]: 61.8 µM | GI50 [38]: 14.9 µM | TGI [38]: 82 µM | GI50 [39]: 7.46 µM | TGI [39]: 36.7 µM | GI50 [40]: 18.4 µM | TGI [40]: 95.9 µM | GI50 [41]: 14.6 µM | TGI [41]: 49.4 µM | GI50 [42]: 37 µM | TGI [42]: > 100 µM | GI50 [43]: 18.5 µM | TGI [43]: 48.6 µM | GI50 [44]: 31.2 µM | TGI [44]: > 100 µM | GI50 [45]: 16.5 µM | TGI [45]: 44.3 µM | GI50 [46]: 28.1 µM | TGI [46]: > 100 µM | GI50 [47]: 59 µM | TGI [47]: > 100 µM | GI50 [48]: 20.5 µM | TGI [48]: 88.8 µM | GI50 [49]: 17.9 µM | TGI [49]: 58.8 µM | GI50 [50]: 16.7 µM | TGI [50]: 56 µM | GI50 [51]: 5.66 µM | TGI [51]: 21.8 µM | GI50 [52]: 19.9 µM | TGI [52]: 75.9 µM | GI50 [53]: 16.1 µM | TGI [53]: > 100 µM | GI50 [54]: 56.1 µM | TGI [54]: > 100 µM | GI50 [55]: 14.8 µM | TGI [55]: 55.4 µM | GI50 [56]: 53.8 µM | TGI [56]: > 100 µM | GI50 [57]: 8.87 µM | TGI [57]: 35.4 µM | GI50 [58]: 7.91 µM | TGI [58]: > 100 µM
